Reference: patent US20250099420A1, “SMALL MOLECULE MODULATORS OF GPR139 COMPLEX” (University of Florida Research Foundation, Incorporated, priority 2022, published 2025)
Like-named read-outs stand apart in the source and are kept apart here.

Columns and labels:
parental HEK cells = experiment: HEK parental Agonist Counterscreen Assay (non-transfected cells); assay type: cell-based; settings: for Averaged Max % Response (±St. Dev.): activity relative to known control
Excerpt: The high control for the agonist counterscreen was Forskolin not acetylcholine.

GPR139 = target: T1, GPR139 (Homo sapiens, UniProt Q6DWJ6); experiment: GPR139 Agonist titration / agonist counterscreen assay (calcium detection, HEK-GPR139 cells); assay type: cell-based; set-up: expressed in transfected cells; host or cells: HEK Aequorin cells, Maxcyte transient transfection; settings: GPR139 Agonist Activity; for Averaged Max % Response (±St. Dev.): activity relative to known control; for EC50: read-out: EC50
T1 sequence (Q6DWJ6 1-353): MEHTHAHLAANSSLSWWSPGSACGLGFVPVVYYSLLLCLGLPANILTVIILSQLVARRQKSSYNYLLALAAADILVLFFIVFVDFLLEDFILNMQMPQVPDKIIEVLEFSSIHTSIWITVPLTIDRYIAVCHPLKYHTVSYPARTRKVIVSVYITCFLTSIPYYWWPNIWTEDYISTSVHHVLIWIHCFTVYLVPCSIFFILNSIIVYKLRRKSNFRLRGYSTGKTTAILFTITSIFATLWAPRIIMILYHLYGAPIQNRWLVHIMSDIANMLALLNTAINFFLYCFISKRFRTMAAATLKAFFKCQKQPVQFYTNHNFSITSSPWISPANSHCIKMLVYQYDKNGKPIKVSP
Description: GPR activity was assessed using a calcium detection assay. […] Negative control samples were treated with DMSO. […] Intracellular calcium was measured using Calcium 5.

[1] = Homo sapiens, HEK293, HEK Agonist Activity, parental non-transfected HEK cells
[2] = values printed in E-notation without unit
[3] = Homo sapiens, HEK293, HEK Agonist Activity section of Table 4 (parental HEK counterscreen)
[4] = HEK Agonist Activity section of Table 4 (parental HEK counterscreen)

Row | Structure (SMILES) | Lipophilic Efficiency (logD) (parental HEK cells; HEK Agonist Activity) | Lipophilic Efficiency (logP) (parental HEK cells; HEK Agonist Activity) | Averaged Max % Response (±St. Dev.) (GPR139) | Lipophilic Efficiency (logD) (GPR139; based on logD) | Lipophilic Efficiency (logP) (GPR139; based on logP) | Hill Slope (GPR139; fitted dose-response curve) | Efficiency Ligand (GPR139; ligand efficiency) | EC50 (GPR139; [2]) | Lipophilic Efficiency (logD) (parental HEK cells; HEK Agonist Activity section) | Lipophilic Efficiency (logP) (parental HEK cells; HEK Agonist Activity section) | Efficiency Ligand (GPR139) | Hill Slope (GPR139) | Lipophilic Efficiency (logD) (GPR139) | Lipophilic Efficiency (logP) (GPR139) | EC50 (GPR139; HEK-GPR139 cells) | Averaged Max % Response (±St. Dev.) (parental HEK cells; HEK Agonist Activity) | EC50 (parental HEK cells; [1]) | Averaged Max % Response (±St. Dev.) (parental HEK cells; HEK Agonist Activity section) | EC50 (parental HEK cells; [3]) | EC50 (parental HEK cells; [4])
1 | CC(CCc1ccccc1)NC(=O)Cn1cc2c(n1)CCCC2 (stereo not shown) [SR-01000137757] | 1.35 | 1.35 | 160.07 ± 33.89% | 4.32 | 4.32 | 0.09 | 0.48 | 15.3 nM | – | – | – | – | – | – | – | −12.95 ± 5.94% | > 14.1 µM | – | – | –
2 | CCCC(=O)C1CCC(C(=O)CC2CCC(c3ccc(C(C)O)cc3)C2=O)CC1 (stereo not shown) [SR-01000924775] | – | – | 69.93 ± 11.99% | – | – | – | – | – | 3.42 | 3.42 | 0.31 | 0.79 | 4.98 | 4.98 | 387 nM | – | – | 10.92 ± 3.68% | > 14.1 µM | –
3 | Cc1ccccc1SCC(=O)NNC(=O)C1CCCCC1 [SR-01000070173] | – | – | 99.23 ± 7.18% | – | – | – | – | – | 1.83 | 1.83 | 0.42 | 0.62 | 3.30 | 3.30 | 507 nM | – | – | 7.45 ± 6.67% | > 14.7 µM | –
4 | Cc1onc(-c2ccccc2Cl)c1C(=O)N1CCC(Cn2ccnc2C)CC1 [SR-01000925002] | – | – | 86.62 ± 3.28% | – | – | – | – | – | 2.12 | 1.88 | 0.31 | 0.51 | 3.41 | 3.17 | 727 nM | – | – | 17.46 ± 3.54% | – | > 14.1 µM
5 | CCOC(=O)C1C2C=CC3(CN(C(C)c4ccc(Br)cc4)C(=O)C13)O2 (stereo not shown) [SR-01000114492] | – | – | 84.13 ± 7.28% | – | – | – | – | – | 2.28 | 2.28 | 0.34 | 0.90 | 3.50 | 3.50 | 853 nM | – | – | −1.32 ± 3.21% | – | > 14.1 µM
6 | COc1ccc2cc(C3(C)CC(=O)N(CC(=O)N(CC(C)C)CC(C)C)C3=O)ccc2c1 (stereo not shown) [SR-01000054961] | – | – | 79.59 ± 15.93% | – | – | – | – | – | 1.27 | 1.27 | 0.26 | 0.85 | 2.43 | 2.43 | – | – | – | 6.24 ± 6.42% | > 14.1 µM | –
7 | Cc1ccc(CNc2nc3ccccc3n2CCN2CCOCC2)cc1 [SR-01000364205] | – | – | 94.68 ± 16.83% | – | – | – | – | – | 1.29 | 1.08 | 0.33 | 1.55 | 2.50 | 2.29 | – | – | – | −1.19 ± 1.27% | > 14.1 µM | –
8 | Cc1ccccc1CS(=O)(=O)CCC(=O)NC(C)c1ccccc1 (stereo not shown) [SR-01000145393] | – | – | 97.82 ± 12.25% | 4.42 | 4.42 | 0.70 | 0.40 | 116 nM | 2.34 | 2.34 | – | – | – | – | – | – | – | 10.41 ± 2.89% | > 14.1 µM | –
9 | O=C(Cn1ncn2c(cc3sccc32)c1=O)NCCc1ccc(Cl)cc1 [SR-01000099712] | – | – | 90.08 ± 9.76% | – | – | – | – | – | 2.50 | 2.50 | 0.33 | 1.73 | 3.73 | 3.73 | 839 nM | – | – | 7.86 ± 5.01% | > 14.1 µM | –
10 | CN(Cc1ccc[nH]1)C(=O)CN1C(=O)NC2(CCc3ccccc3C2)C1=O (stereo not shown) [SR-01000068179] | – | – | 87.03 ± 9.26% | – | – | – | – | – | 2.52 | 2.52 | 0.31 | 0.84 | 3.64 | 3.64 | 1100 nM | – | – | 2.62 ± 3.03% | > 14.7 µM | –
11 | CC1=NNC(=O)C1CC(=O)N/N=C/c1c(Cl)cccc1Cl (stereo not shown) [SR-01000310664] | – | – | 89.42 ± 11.78% | – | – | – | – | – | 3.00 | 3.00 | 0.41 | 0.70 | 4.32 | 4.32 | 672 nM | – | – | 28.78 ± 5.42% | – | > 14.1 µM
12 | O=C(COc1ccccc1Cl)NNC(=O)CSc1ccc2ccccc2c1 [SR-01000071098] | 1.38 | 1.37 | 108.04 ± 6.43% | 4.08 | 4.08 | 0.77 | 0.39 | 27.4 nM | – | – | – | – | – | – | – | 24.54 ± 7.58% | > 14.1 µM | – | – | –

The next lines start with results.

Row | Lipophilic Efficiency (logD) (parental HEK cells; HEK Agonist Activity) | Lipophilic Efficiency (logP) (parental HEK cells; HEK Agonist Activity) | Averaged Max % Response (±St. Dev.) (GPR139) | Lipophilic Efficiency (logD) (GPR139; based on logD) | Lipophilic Efficiency (logP) (GPR139; based on logP) | Hill Slope (GPR139; fitted dose-response curve) | Efficiency Ligand (GPR139; ligand efficiency) | EC50 (GPR139; [2]) | Lipophilic Efficiency (logD) (parental HEK cells; HEK Agonist Activity section) | Lipophilic Efficiency (logP) (parental HEK cells; HEK Agonist Activity section) | Efficiency Ligand (GPR139) | Hill Slope (GPR139) | Lipophilic Efficiency (logD) (GPR139) | Lipophilic Efficiency (logP) (GPR139) | EC50 (GPR139; HEK-GPR139 cells) | Structure (SMILES) | Averaged Max % Response (±St. Dev.) (parental HEK cells; HEK Agonist Activity) | EC50 (parental HEK cells; [1]) | Averaged Max % Response (±St. Dev.) (parental HEK cells; HEK Agonist Activity section) | EC50 (parental HEK cells; [3]) | EC50 (parental HEK cells; [4])
13 | – | – | 123.62 ± 30.65% | 4.22 | 4.22 | 0.32 | 0.36 | 106 nM | 2.10 | 2.10 | – | – | – | – | – | CC(C(=O)NCCC1=CCCCC1)n1c(=O)c2cccn2c2ccccc21 (stereo not shown) [SR-01000142419] | – | – | −9.79 ± 12.86% | > 14.1 µM | –
14 | 1.70 | 1.70 | 136.99 ± 21.58% | 5.09 | 5.09 | 0.44 | 0.52 | 5.7 nM | – | – | – | – | – | – | – | Cc1ccc(CCNC(=O)Cn2cc3c(n2)CCCC3)cc1 [SR-01000137723] | −4.03 ± 1.74% | > 14.1 µM | – | – | –
15 | – | – | 81.95 ± 3.88% | – | – | – | – | – | 2.56 | 2.55 | 0.30 | 0.89 | 4.08 | 4.08 | 450 nM | COc1cc(C(=O)NNC(=O)COc2ccc3ccccc3c2)cc(OC)c1OC [SR-01000056004] | – | – | −16.39 ± 11.45% | > 15.1 µM | –
16 | – | – | 93.59 ± 4.95% | 3.81 | 3.81 | 0.82 | 0.37 | 62.9 nM | 1.46 | 1.46 | – | – | – | – | – | COc1cc(NC(=O)NCCc2ccc3c(c2)CCCN3C)cc(OC)c1 [SR-01000923249] | – | – | 25.04 ± 3.96% | > 14.1 µM | –
17 | – | – | 111.55 ± 2.57% | 4.82 | 4.82 | 0.34 | 0.38 | 47.9 nM | 2.35 | 2.35 | – | – | – | – | – | COc1ccc(CCC(=O)Nc2ccc(OC)c(N3CCCC3=O)c2)cc1 [SR-01000916271] | – | – | 29.38 ± 9.84% | > 14.1 µM | –
18 | 1.97 | 1.97 | 107.79 ± 9.70% | 5.30 | 5.30 | 0.87 | 0.38 | – | – | – | – | – | – | – | – | COc1ccc(-c2nnn(CC(=O)NCCc3c[nH]c4ccccc34)n2)cc1OC [SR-01000339494] | 13.92 ± 7.54% | > 14.1 µM | – | – | –
19 | – | – | 84.68 ± 8.82% | 4.29 | 4.29 | 0.73 | 0.35 | 166 nM | 2.37 | 2.37 | – | – | – | – | – | CCn1c(=O)c([N+](=O)[O-])c(NCCc2ccc(OC)cc2)c2ccccc21 [SR-01000918303] | – | – | −6.52 ± 9.86% | – | > 14.1 µM
